Results from PubChem BioAssay (NCI).
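Step 1: Grow cells in 96-well plates. Step 2: Expose to compound for 48 hours at 5 concentrations. Step 3: Interpolate endpoints linearly; if unreached, use highest concentration. The concentration for full growth arrest is given as TGI.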

Legend:
Test in all cases: inhibition of tumour cell growth, NCI panel, 48 h
COLO 205 colon = test system: COLO 205 colon
NCI-H226 lung = test system: NCI-H226 lung
SF-295 CNS = test system: SF-295 CNS
RXF-631 renal = test system: RXF-631 renal
EKVX NSCLC = test system: EKVX NSCLC
KM12 colon = test system: KM12 colon
HOP-62 NSCLC = test system: HOP-62 NSCLC
UO-31 renal = test system: UO-31 renal
HCT-15 colon = test system: HCT-15 colon
SF-268 CNS = test system: SF-268 CNS
CAKI-1 renal = test system: CAKI-1 renal
MOLT-4 leukemia = test system: MOLT-4 leukemia
DMS 114 small cell lung = test system: DMS 114 small cell lung
NCI-H522 lung = test system: NCI-H522 lung
SNB-19 CNS = test system: SNB-19 CNS
ACHN renal = test system: ACHN renal
IGROV1 ovarian = test system: IGROV1 ovarian
RXF 393 renal = test system: RXF 393 renal
SF-539 CNS = test system: SF-539 CNS
HOP-92 NSCLC = test system: HOP-92 NSCLC
LXFL 529 NSCLC = test system: LXFL 529 NSCLC
HL-60(TB) leukemia = test system: HL-60(TB) leukemia
LOX IMVI melanoma = test system: LOX IMVI melanoma
HT29 colon = test system: HT29 colon
KM20L2 colon = test system: KM20L2 colon
DLD-1 colon = test system: DLD-1 colon
OVCAR-3 ovarian = test system: OVCAR-3 ovarian
A549 NSCLC = test system: A549 NSCLC
M19-MEL melanoma = test system: M19-MEL melanoma
UACC-257 melanoma = test system: UACC-257 melanoma
A498 renal = test system: A498 renal
M14 melanoma = test system: M14 melanoma
SNB-78 CNS = test system: SNB-78 CNS
HOP-18 NSCLC = test system: HOP-18 NSCLC
OVCAR-8 ovarian = test system: OVCAR-8 ovarian
MALME-3M melanoma = test system: MALME-3M melanoma
OVCAR-4 ovarian = test system: OVCAR-4 ovarian
TK-10 renal = test system: TK-10 renal
SK-MEL-28 melanoma = test system: SK-MEL-28 melanoma
OVCAR-5 ovarian = test system: OVCAR-5 ovarian
U251 CNS = test system: U251 CNS
K-562 leukemia = test system: K-562 leukemia
UACC-62 melanoma = test system: UACC-62 melanoma
HCT-116 colon = test system: HCT-116 colon
RPMI-8226 leukemia = test system: RPMI-8226 leukemia
SN12C renal = test system: SN12C renal
CCRF-CEM leukemia = test system: CCRF-CEM leukemia
NCI-H460 lung = test system: NCI-H460 lung
DMS 273 small cell lung = test system: DMS 273 small cell lung
SK-MEL-5 melanoma = test system: SK-MEL-5 melanoma
SW-620 colon = test system: SW-620 colon
786-0 renal = test system: 786-0 renal
NCI-H23 lung = test system: NCI-H23 lung
SR leukemia = test system: SR leukemia
XF 498 CNS = test system: XF 498 CNS
HCC-2998 colon = test system: HCC-2998 colon
SNB-75 CNS = test system: SNB-75 CNS
SK-OV-3 ovarian = test system: SK-OV-3 ovarian
SK-MEL-2 melanoma = test system: SK-MEL-2 melanoma

Measured: TGI

COC(=O)C(Cc1cc(OC)c(OC)c(OC)c1)c1ccc(OC)cc1 (stereo unspecified)
> 100 µM: COLO 205 colon | NCI-H226 lung | SF-295 CNS | RXF-631 renal | EKVX NSCLC | KM12 colon | HOP-62 NSCLC | UO-31 renal | HCT-15 colon | SF-268 CNS | CAKI-1 renal | MOLT-4 leukemia | DMS 114 small cell lung | NCI-H522 lung | SNB-19 CNS | ACHN renal | IGROV1 ovarian | RXF 393 renal | SF-539 CNS | HOP-92 NSCLC | LXFL 529 NSCLC | HL-60(TB) leukemia | LOX IMVI melanoma | HT29 colon | KM20L2 colon | DLD-1 colon | OVCAR-3 ovarian | A549 NSCLC | M19-MEL melanoma | UACC-257 melanoma | A498 renal | M14 melanoma | SNB-78 CNS | HOP-18 NSCLC | OVCAR-8 ovarian | MALME-3M melanoma | OVCAR-4 ovarian | TK-10 renal | SK-MEL-28 melanoma | OVCAR-5 ovarian | U251 CNS | K-562 leukemia | UACC-62 melanoma | HCT-116 colon | RPMI-8226 leukemia | SN12C renal | CCRF-CEM leukemia | NCI-H460 lung | DMS 273 small cell lung | SK-MEL-5 melanoma | SW-620 colon | 786-0 renal

CO[C@@H]1C=C[C@@]23c4cc5c(cc4C(=O)O[C@H]2CN(C)[C@H]3C1)OCO5
> 100 µM: COLO 205 colon | SF-295 CNS | EKVX NSCLC | NCI-H23 lung | KM12 colon | UO-31 renal | SR leukemia | SF-268 CNS | XF 498 CNS | MOLT-4 leukemia | DMS 114 small cell lung | NCI-H522 lung | SNB-19 CNS | ACHN renal | IGROV1 ovarian | RXF 393 renal | HCC-2998 colon | SF-539 CNS | HOP-92 NSCLC | LXFL 529 NSCLC | HL-60(TB) leukemia | LOX IMVI melanoma | HT29 colon | KM20L2 colon | DLD-1 colon | OVCAR-3 ovarian | A549 NSCLC | M19-MEL melanoma | UACC-257 melanoma | A498 renal | SNB-75 CNS | M14 melanoma | SNB-78 CNS | SK-OV-3 ovarian | HOP-18 NSCLC | OVCAR-8 ovarian | OVCAR-4 ovarian | TK-10 renal | SK-MEL-28 melanoma | OVCAR-5 ovarian | U251 CNS | K-562 leukemia | UACC-62 melanoma | HCT-116 colon | RPMI-8226 leukemia | SN12C renal | CCRF-CEM leukemia | NCI-H460 lung | DMS 273 small cell lung | SK-MEL-5 melanoma | SW-620 colon | 786-0 renal | SK-MEL-2 melanoma

O=C(c1ccccc1)N1C2CCC1C(C(F)(F)F)=C2C(F)(F)F
> 100 µM: COLO 205 colon | NCI-H226 lung | SF-295 CNS | RXF-631 renal | EKVX NSCLC | NCI-H23 lung | KM12 colon | HOP-62 NSCLC | UO-31 renal | HCT-15 colon | SR leukemia | SF-268 CNS | CAKI-1 renal | MOLT-4 leukemia | DMS 114 small cell lung | NCI-H522 lung | SNB-19 CNS | IGROV1 ovarian | RXF 393 renal | HCC-2998 colon | SF-539 CNS | HOP-92 NSCLC | LXFL 529 NSCLC | HL-60(TB) leukemia | LOX IMVI melanoma | HT29 colon | KM20L2 colon | DLD-1 colon | OVCAR-3 ovarian | A549 NSCLC | M19-MEL melanoma | UACC-257 melanoma | A498 renal | SNB-75 CNS | M14 melanoma | SNB-78 CNS | SK-OV-3 ovarian | HOP-18 NSCLC | OVCAR-8 ovarian | MALME-3M melanoma | OVCAR-4 ovarian | TK-10 renal | OVCAR-5 ovarian | U251 CNS | K-562 leukemia | UACC-62 melanoma | HCT-116 colon | RPMI-8226 leukemia | SN12C renal | CCRF-CEM leukemia | NCI-H460 lung | DMS 273 small cell lung | SK-MEL-5 melanoma | SW-620 colon | 786-0 renal

O=C(O)C[C@H]1CCCCC12CCOC2=O (stereo partly specified)
> 100 µM: COLO 205 colon | NCI-H226 lung | SF-295 CNS | RXF-631 renal | EKVX NSCLC | NCI-H23 lung | KM12 colon | HOP-62 NSCLC | UO-31 renal | SR leukemia | SF-268 CNS | XF 498 CNS | CAKI-1 renal | MOLT-4 leukemia | DMS 114 small cell lung | NCI-H522 lung | SNB-19 CNS | ACHN renal | IGROV1 ovarian | RXF 393 renal | HCC-2998 colon | SF-539 CNS | HOP-92 NSCLC | LXFL 529 NSCLC | HL-60(TB) leukemia | LOX IMVI melanoma | HT29 colon | KM20L2 colon | DLD-1 colon | OVCAR-3 ovarian | A549 NSCLC | M19-MEL melanoma | UACC-257 melanoma | SNB-75 CNS | M14 melanoma | SNB-78 CNS | SK-OV-3 ovarian | HOP-18 NSCLC | OVCAR-8 ovarian | OVCAR-4 ovarian | TK-10 renal | SK-MEL-28 melanoma | OVCAR-5 ovarian | U251 CNS | K-562 leukemia | UACC-62 melanoma | HCT-116 colon | RPMI-8226 leukemia | SN12C renal | CCRF-CEM leukemia | NCI-H460 lung | DMS 273 small cell lung | SK-MEL-5 melanoma | SW-620 colon | 786-0 renal | SK-MEL-2 melanoma
